Laboratory results from US10034915B2, “Small heat shock proteins and active fragments thereof as a therapy for inflammation and ischemia” (The Board of Trustees of the Leland Stanford Junior …, priority 2011, dated 2018).
“Also recorded” adds a separate entry of the source.

Key:
brain T cells = assay: Brain T cell populations at 7 d after stroke (flow cytometry), wild-type mice; format: in vivo, mouse; details: vs PBS
Description: The T cell populations in brain were analyzed at 7 d after stroke. […] However, when we quantitatively analyzed how many cytokine molecules existed per cell, we found fewer IL-17-PE molecules per CD3^+, CD4^+ and gd-T cells in Cryab-treated mice brains compared to PBS-treated ones (FIG. 15k, l).

mice with EAE = assay: EAE in C57BL/6J mice (MOG35-55/CFA, pertussis toxin), neurological impairment scoring; format: in vivo, mouse
Description: It was tested if the chaperone function of residues 73-92 of HspB5 were capable of reducing the symptoms of experimental allergic encephalomyelist (EAE), by inducing EAE in 9-week old female C57BL/6J by immunized subcutaneously with an emulsion containing 200 μg myelin oligodendrocyte glycoprotein 35-55 (MOG35-55; […] (SEQ ID NO:24)) in saline and an equal volume of complete Freund's adjuvant. Intraperitoneal injection of pertussis toxin at 0 and 48 h post-immunization results in paralysis beginning at day 12.

[1] = tested on: splenocytes stimulated with anti-CD3/anti-CD28, concanavalin-A or LPS; assay: Splenocyte cytokine response at 7 d after stroke, Cryab−/− mice; format: in vivo, mouse; details: Cryab treated vs PBS treated Cryab−/− mice
Description: The effects of Cryab treatment on splenocytes isolated from PBS treated wild-type and Cryab^−/− mice and Cryab treated Cryab^−/− mice were assessed at 7 d after stroke. Splenocytes from PBS treated Cryab^−/− mice produced more pro-inflammatory IL-2, IL-17 and TNF when stimulated with anti-CD3/anti-CD28 than both PBS-treated wild-type mice and Cryab-treated Cryab^−/− mice splenocytes (FIG. 12e). When stimulated by concanavalin-A, splenocytes from PBS treated Cryab^−/− mice produced more pro-inflammatory IFN-γ, TNF, IL-12p40 and less anti-inflammatory IL-10 compared to the splenocytes from both PBS treated wild-type and Cryab treated Cryab^−/− mice (FIG. 12e). When stimulated with LPS, splenocytes from PBS treated Cryab^−/− mice produced more TNF and less IL-10 compared to the splenocytes from both PBS treated wild-type mice and Cryab treated Cryab^−/− mice (FIG. 12e).

EAE mice = assay: EAE in 129Sv WT mice immunized with MOG35-55/CFA, clinical scoring; format: in vivo, mouse; details: vs PBS
Description: To investigate if the therapeutic efficacy of HSPB5 is a common feature of the whole family of small heat shock proteins, we expressed recombinant HSPB1, HSPB4, and HSPB5. We then treated EAE mice every other day starting at the peak of disease, when clinical paralysis is apparent, with an intraperitoneal (IP) administration of 10 μg of either HSPB1, HSPB4, HSPB5, or PBS as the vehicle control. […] Treating mice in vivo with HSPB1, HSPB4, or HSPB5 led to a reduction in the production of pro-inflammatory cytokines by MOG stimulated splenocytes taken from MOG immunized mice (FIG. 1c). Improvement of the clinical score was dependent on continued dosing of the sHSP. After dosing was stopped, symptoms returned, and paralysis worsened after 96 hours.
Therapeutic Peptides from HSPB5 in EAE. […] We made a series of overlapping, 15-mer peptide fragments of HSPB5 and treated mice at the peak of disease with 10 μg of each peptide every other day, using HSPB5 as a positive control and PBS as a negative control.
EAE induction and scoring. Mice were immunized subcutaneously with 100 μL of myelin oligodendrocyte glycoprotein (MOG) peptide 35-55 (2 mg/mL) and Complete Freund's adjuvant (CFA) (4 mg/mL) on Day 0. […] Mice were randomized at the peak of disease into the treatment groups where they received 10 ug/200 μL of sHSP, 1 μg/200 uL of sHSP peptide, or 200 μL of PBS (vehicle) every other day. Mice were scored every day on a clinical scoring system: 0, healthy mouse; 1, limp tail; 2, weak hindlimbs; 3, complete hindlimb paralysis; 4, weak forelimbs and paralyzed hindlimbs; 5, dead.

HSPB5−/− EAE mice = details: WT and HSPB5 deficient mice; previously published data; cited from earlier work
[2] = tested on: pro-inflammatory cytokines of MOG stimulated splenocytes; assay: Peripheral immune cell activation: cytokine production by MOG stimulated splenocytes of treated MOG immunized mice (ELISA); design: species or system mouse; details: mice treated in vivo; splenocytes from MOG immunized mice
Description: Peripheral immune cell activation and cytokine analysis. Spleens and lymph nodes were isolated from mice 9 days after immunization with MOG35-55 and CFA. Spleens were mechanically disrupted to isolate single cell splencytes suspension. Cells were cultured in flat bottomed, 96-well plates in media (RPMI 1640 supplemented with […] L-glutamine, 1 mM sodium pyruvate, 0.1 mM non-essential amino acids, 100 U/mL penicillin, 0.1 mg/mL streptomycin, 0.5 uM 2-mercaptoethanol, and 10% fetal calf serum). Cells were stimulated with MOG35-55 (5 ug/mL, 10 ug/mL, and 20 ug/mL). For all activation assays, splenocytes were pooled from three mice per group and triplicate wells were plated. Supernatants of cells were collected at the time of peak production for each cytokine (48 hrs: IL-2, IL-12p40, IL-6; 72 hrs: TNFα and IFNγ; 96 hrs: IL-17; 120 hrs: IL-10). Cytokines were measured in the supernatants using anti-mouse OPTEIA ELISA kits (BD Pharmingen for IFNγ, IL-10, IL-2, IL-6, and IL-12p40; R&D Systems for IL-17 and TNFα).

## αB-crystallin [HSPB5]
Brain T cells; brain
  IL-17-PE molecules per CD3+, CD4+ and gd-T cells: fewer
  number of IFN-g-PE molecules per CD3+ or CD4+ cells: no differences
  percentages of IFN-g+ cells among CD3+ or CD4+ cells: no differences
  percentages of IL-17+ cells among CD3+, CD4+ or gd-T cells: no differences
Brain T cells
  total number of the brain CD3+, CD4+, CD8+ and gd-T cells: did not change
Mice with EAE; intraperitoneal 10-50 μg every other day starting at the peak of disease
  clinical paralysis / clinical scores of mice with EAE: significant reduction of clinical paralysis
Mice with EAE; intravenous administration
  symptoms of EAE: dramatic reduction of symptoms
Mice with EAE; mouse, in vivo
  symptoms after cessation of the administration: returned soon after cessation
[1]
  peripheral inflammatory response (splenocyte cytokines): modulates the peripheral inflammatory response
EAE mice; 10 μg sHSP protein IP every other day from peak of disease
  EAE clinical scores over the course of the whole experiment (area under the curve): significantly improved
EAE mice; 10 μg sHSP protein IP every other day starting at the peak of disease
  clinical paralysis / EAE clinical scores: significantly ameliorated clinical paralysis; also recorded: therapeutic
HSPB5−/− EAE mice
  treatment of EAE by full-length protein: able to treat not only WT mice, but also HSPB5 deficient mice
[2]
  production of pro-inflammatory cytokines by MOG stimulated splenocytes: reduction
